Counter-ions that a name gives are not always drawn.
How the values were obtained:
[1] = test system: Human umbilical cord endothelial cells (HUVEC); experiment: VEGF-driven cellular proliferation assay: BrdU incorporation assay (VEGF-C); assay type: cell-based; set-up: key to VEGF-C: + = pIC50 of 5.0–6.0; ++ = pIC50 of 6.0–7.0; +++ = pIC50 of > 7.0; − = a negative or inconclusive result; settings: for IC50: Homo sapiens
In short: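 HUVEC (≤6 passages) were plated at 5000 cells/well and exposed to compound 30 min in serum-free M199 containing 0.6% DMSO. Medium with 20 ng/ml VEGF was then added for 24 h, followed by a 24 h pulse with 10 μM BrdU and ELISA read at 450 nm. IC50 from nonlinear regression of percent inhibition was expressed as pIC50.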

GST-VEGFR2 = molecular target: T1, GST-VEGFR2 (Homo sapiens, UniProt P35968); experiment: VEGF-R2 enzyme assay (VEGF-E), LANCE method; assay type: biochemical; settings: 75 μM ATP
T1 construct: GST-VEGFR2, baculovirus expressed recombinant constructs of the intracellular domains of human TIE2 tagged by GST; made in house
T1 sequence (P35968 786-1356 limits assumed): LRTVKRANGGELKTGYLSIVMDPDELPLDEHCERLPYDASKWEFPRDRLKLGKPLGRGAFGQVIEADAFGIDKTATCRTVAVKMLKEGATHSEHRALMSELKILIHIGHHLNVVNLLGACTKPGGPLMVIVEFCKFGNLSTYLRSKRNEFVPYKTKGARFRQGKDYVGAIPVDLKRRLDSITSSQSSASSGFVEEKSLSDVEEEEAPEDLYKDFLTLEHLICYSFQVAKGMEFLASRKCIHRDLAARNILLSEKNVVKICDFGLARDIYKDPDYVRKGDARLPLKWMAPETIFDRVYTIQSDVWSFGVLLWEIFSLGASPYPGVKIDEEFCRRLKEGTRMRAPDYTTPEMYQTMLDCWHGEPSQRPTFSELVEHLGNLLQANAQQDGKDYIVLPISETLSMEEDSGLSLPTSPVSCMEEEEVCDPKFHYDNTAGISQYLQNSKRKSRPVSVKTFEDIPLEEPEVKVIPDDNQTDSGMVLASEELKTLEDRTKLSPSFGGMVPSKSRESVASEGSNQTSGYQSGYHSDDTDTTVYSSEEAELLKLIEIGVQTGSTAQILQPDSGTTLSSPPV

[2] = molecular target: T2, TIE2 intracellular domain/c-fms extracellular domain (TIE2/c-fms) chimeric protein expressing mouse 3T3 cells (Homo sapiens, UniProt Q02763); experiment: TIE-2 autophosphorylation assay (TIE2-C), ELISA; assay type: cell-based; settings: TIE2/c-fms 3T3 cells, MCSF activation
T2 construct: a TIE2 intracellular domain/c-fms extracellular domain (TIE2/c-fms) chimeric protein; expressed in transfected cells; host or cells: mouse 3T3 cells
T2 sequence (Q02763 770-1124 limits assumed, change not shown): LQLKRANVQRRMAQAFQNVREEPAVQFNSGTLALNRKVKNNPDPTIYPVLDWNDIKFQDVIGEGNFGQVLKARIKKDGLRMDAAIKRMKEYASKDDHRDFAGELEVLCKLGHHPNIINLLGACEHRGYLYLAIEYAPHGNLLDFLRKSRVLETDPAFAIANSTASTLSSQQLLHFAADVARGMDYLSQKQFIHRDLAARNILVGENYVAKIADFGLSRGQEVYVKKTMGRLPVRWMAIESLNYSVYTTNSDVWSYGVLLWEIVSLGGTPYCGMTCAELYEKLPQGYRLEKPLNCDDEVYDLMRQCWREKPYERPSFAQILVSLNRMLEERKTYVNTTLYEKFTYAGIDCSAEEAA
In short: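 Mouse 3T3 cells expressing TIE2 intracellular/c-fms extracellular chimera treated with compound for 1 hr in serum-free DMEM (0.1% DMSO), then stimulated with MCSF. Lysates captured on anti-c-fms plates overnight at 4 °C; phosphotyrosine detected by biotin-PT66/HRP-streptavidin, OD450. IC50 by nonlinear regression, reported as pIC50.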

[3] = molecular target: T3, GST-TIE2 (intracellular domains of human TIE2) (Homo sapiens, UniProt Q02763); experiment: TIE-2 enzyme assay (TIE2-E), LANCE method; assay type: biochemical; settings: 80 uM ATP
T3 construct: made in house
T3 sequence (Q02763 762-1104): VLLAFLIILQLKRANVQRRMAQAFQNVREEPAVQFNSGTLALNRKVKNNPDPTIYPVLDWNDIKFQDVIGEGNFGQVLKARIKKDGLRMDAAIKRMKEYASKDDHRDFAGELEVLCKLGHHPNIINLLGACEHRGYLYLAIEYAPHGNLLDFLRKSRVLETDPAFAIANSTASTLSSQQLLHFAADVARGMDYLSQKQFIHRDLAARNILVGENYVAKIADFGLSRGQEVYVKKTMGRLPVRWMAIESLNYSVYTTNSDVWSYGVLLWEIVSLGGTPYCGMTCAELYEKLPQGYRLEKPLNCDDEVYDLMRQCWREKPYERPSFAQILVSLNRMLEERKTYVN
In short: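 Baculovirus GST-TIE2 (human intracellular domain, aa 762–1104) preactivated 30 min at RT with 2 mM ATP, then reacted 30 min at RT with 1 μM D1-15 peptide, 80 uM ATP, 10 mM MgCl2, pH 7.4, 2.4% DMSO. EDTA-stopped; LANCE Eu-anti-pTyr/streptavidin-APC read-out. IC50 by nonlinear regression, reported as pIC50.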

Recombinant GST-Tie2 = Recombinant GST-Tie2 (Homo sapiens, UniProt Q02763); experiment: Tie2 fluorescence polarization kinase activity assay (TIE2-FP); assay type: biochemical; settings: starred examples, 200 μM ATP, read-out: TIE2-E (Tie-2 activities run utilizing Tie2-FP assay)
Sequence of Recombinant GST-Tie2 (Q02763 23-1124): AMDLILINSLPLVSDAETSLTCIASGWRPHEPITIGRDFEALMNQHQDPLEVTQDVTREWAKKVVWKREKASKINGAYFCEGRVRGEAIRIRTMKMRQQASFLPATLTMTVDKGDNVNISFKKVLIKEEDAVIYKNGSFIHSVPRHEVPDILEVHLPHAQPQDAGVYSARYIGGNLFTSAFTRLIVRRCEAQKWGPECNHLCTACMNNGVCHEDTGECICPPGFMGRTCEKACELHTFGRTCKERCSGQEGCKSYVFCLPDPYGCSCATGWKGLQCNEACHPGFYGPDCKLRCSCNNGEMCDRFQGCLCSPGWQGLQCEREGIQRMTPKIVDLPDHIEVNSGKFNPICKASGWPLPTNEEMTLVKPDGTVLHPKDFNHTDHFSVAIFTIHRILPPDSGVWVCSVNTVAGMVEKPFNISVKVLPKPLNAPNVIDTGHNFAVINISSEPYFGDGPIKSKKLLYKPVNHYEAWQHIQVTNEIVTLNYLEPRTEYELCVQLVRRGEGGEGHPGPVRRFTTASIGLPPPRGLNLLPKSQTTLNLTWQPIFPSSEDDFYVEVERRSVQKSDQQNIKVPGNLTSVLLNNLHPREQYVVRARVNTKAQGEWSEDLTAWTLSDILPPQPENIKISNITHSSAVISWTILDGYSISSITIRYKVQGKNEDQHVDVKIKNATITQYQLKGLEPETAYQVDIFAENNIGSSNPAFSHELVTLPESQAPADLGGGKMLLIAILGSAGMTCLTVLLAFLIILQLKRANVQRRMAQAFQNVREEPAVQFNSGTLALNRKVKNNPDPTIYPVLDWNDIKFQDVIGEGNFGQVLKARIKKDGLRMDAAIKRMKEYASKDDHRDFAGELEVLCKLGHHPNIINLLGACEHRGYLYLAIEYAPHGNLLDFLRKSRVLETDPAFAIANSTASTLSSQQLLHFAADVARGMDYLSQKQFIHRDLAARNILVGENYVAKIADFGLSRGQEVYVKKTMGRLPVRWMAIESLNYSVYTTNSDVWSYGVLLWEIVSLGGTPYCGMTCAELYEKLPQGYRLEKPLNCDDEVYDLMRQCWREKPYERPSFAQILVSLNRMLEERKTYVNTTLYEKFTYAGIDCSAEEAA
Procedure: Tie2 Fluorescence Polarization Kinase Activity Assay: (TIE2-FP)
Activation of Recombinant Tie2 Activation:
Recombinant GST-Tie2 was activated by incubating the enzyme in 20 mM Tris-HCl, pH 7.5, 12 mM MgCl2, 100 mM NaCl, 20 μM sodium vanidate, 1 mM DTT and 300 μM ATP at room temperature for 2 hours. The activation mixture was then passed through a NAP-25 desalting column (Pharmacia Biotech cat. no. 17-0852-02) to remove the free ATP. The activated enzyme was stored as aliquots at −80° C. in 20 mM Tris-HCl, pH 7.5 and 100 mM NaCl.
The final assay conditions were 50 mM HEPES, pH 7.5, 5% DMSO (when screening compounds), 200 μM ATP, 5 mM MgCl2, 1 mM DTT, 50 μM sodium vanidate, 1 nM activated enzyme, and 200 μM peptide. IC50's of compounds were measured under subsaturating ATP (200 μM) and varing concentrations of activated Tie2 and peptide substrate ([…]-OH; MW 1873 Da, TFA salt). Panvera Antiphosphotyrosine antibody (Cat#P2840) and PTK Green Tracer (Cat#P2842) were used to detect the phosphorylated peptide. Polarization was measured on a TECAN Polarion in 138-second cycles for 30 minutes at room temperature. IC50's were then determined from the % polarization using normal calculation methods.

O=C(Nc1ccc(Oc2ccc3[nH]c(NC(=O)c4ccc(-n5ccnc5)cc4)nc3c2)cc1)Nc1cc(C(F)(F)F)ccc1F [Example 91, N-(5-(4-((2-Fluoro-5-(trifluoromethyl)phenyl)aminocarbonylamino)phenoxy)-1H-benzimidazol-2-yl)-4-(1H-imidazol-1-yl)benzamide]
VEGF-C [1]: −
IC50 (GST-VEGFR2): < 100 nM
IC50 [2]: < 100 nM
IC50 [3]: < 100 nM

CN(C)CCCC(=O)Nc1nc2cc(Oc3ccc(NC(=O)Nc4cc(C(F)(F)F)ccc4F)cc3)ccc2[nH]1 [Example 92, N-(5-(4-((2-Fluoro-5-(trifluoromethyl)phenyl)aminocarbonylamino)phenoxy)-1H-benzimidazol-2-yl)-4-(dimethylamino)butylamide]
IC50 [1]: < 100 nM
IC50 (GST-VEGFR2): < 100 nM
IC50 [2]: < 100 nM
IC50 [3]: < 100 nM

O=C(Nc1ccc(Oc2ccc3nc(NC(=O)c4cccnc4)[nH]c3c2)cc1)Nc1cc(C(F)(F)F)ccc1F [Example 93, N-(5-(4-((2-Fluoro-5-(trifluoromethyl)phenyl)aminocarbonylamino)phenoxy)-1H-benzimidazol-2-yl)-3-pyridinecarboxamide]
IC50 [1]: 1000 to 10000 nM
IC50 (GST-VEGFR2): < 100 nM
IC50 [2]: < 100 nM
IC50 [3]: < 100 nM

O=C(Nc1ccc(Oc2ccc3[nH]c(NC(=O)C4CCCO4)nc3c2)cc1)Nc1cc(C(F)(F)F)ccc1F (centres unmarked) [Example 94]
IC50 [1]: 1000 to 10000 nM
IC50 (GST-VEGFR2): < 100 nM
IC50 [2]: < 100 nM
IC50 [3]: < 100 nM

O=C(Cn1nnc(N2CCCC2)n1)Nc1nc2cc(Oc3ccc(NC(=O)Nc4cc(C(F)(F)F)ccc4F)cc3)ccc2[nH]1 [Example 96, N-(5-(4-((2-Fluoro-5-(trifluoromethyl)phenyl)aminocarbonylamino)phenoxy)-1H-benzimidazol-2-yl)(5-(1-pyrrolidino)tetrazol-2-yl)acetamide]
IC50 [1]: 100 to 1000 nM
IC50 (GST-VEGFR2): < 100 nM
IC50 [2]: < 100 nM
IC50 [3]: < 100 nM

Cn1cnc(CC(=O)Nc2nc3cc(Oc4ccc(NC(=O)Nc5cc(C(F)(F)F)ccc5F)cc4)ccc3[nH]2)c1 [Example 97, N-(5-(4-((2-Fluoro-5-(trifluoromethyl)phenyl)aminocarbonylamino)phenoxy)-1H-benzimidazol-2-yl)(1methyl-1H-imidazol-4-yl)acetamide]
IC50 [1]: < 100 nM
IC50 (GST-VEGFR2): < 100 nM
IC50 [2]: < 100 nM
IC50 [3]: < 100 nM

O=C(Nc1ccc(Oc2ccc3[nH]c(NC(=O)c4c[nH]cn4)nc3c2)cc1)Nc1cc(C(F)(F)F)ccc1F [Example 98, N-(5-(4-((2-Fluoro-5-(trifluoromethyl)phenyl)aminocarbonylamino)phenoxy)-1H-benzimidazol-2-yl)(1H-imidazole-4-carboxamide)dihydrochloride]
IC50 [1]: 100 to 1000 nM
IC50 (GST-VEGFR2): < 100 nM
IC50 [2]: < 100 nM
IC50 [3]: < 100 nM

CN(C)CC(=O)Nc1nc2cc(Oc3ccc(NC(=O)Nc4cc(C(F)(F)F)ccc4F)cc3)ccc2[nH]1 [Example 102]
IC50 [1]: < 100 nM
IC50 (GST-VEGFR2): < 100 nM
IC50 [2]: < 100 nM
IC50 [3]: < 100 nM

COC(=O)Nc1nc2cc(Oc3ccc(NC(=O)Nc4cc(C(F)(F)F)ccc4Cl)cn3)ccc2[nH]1 [Example 111, Methyl-N-(5-(5-((2-chloro-5-(trifluoromethyl)phenyl)aminocarbonylamino)-2-pyridyloxy)-1H-benzimidazol-2-yl)carbamate]
VEGF-C [1]: −
IC50 (GST-VEGFR2): < 100 nM
IC50 [2]: < 100 nM
IC50 [3]: < 100 nM

COC(=O)Nc1nc2ccc(Oc3ccc(NC(=O)Nc4cc(C(F)(F)F)ccc4F)cc3)cc2o1 [Example 115, Methyl N-(6-(4-((2-fluoro-5-(trifluoromethyl)phenyl)aminocarbonylamino)phenoxy)benzoxazol-2-yl)carbamate]
IC50 [1]: < 100 nM
IC50 (GST-VEGFR2): < 100 nM
IC50 [2]: < 100 nM
IC50 [3]: < 100 nM

CC(=O)Nc1nc2cc(Oc3ccc(NC(=O)Nc4nc(C(C)(C)C)cs4)cc3)ccc2[nH]1 [Example 146, N-(5-(4-((4-tert-Butylthiazol-2-yl)aminocarbonylamino)phenoxy)-1H-benzimidazol-2-yl)acetamide]
IC50 (GST-VEGFR2): < 100 nM
IC50 (Recombinant GST-Tie2): 100 to 1000 nM

COCCOCC(=O)Nc1nc2cc(Oc3ccc(NC(=O)Nc4nccs4)cc3)ccc2[nH]1 [Example 151, N-(5-(4-((Thiazol-2-yl)aminocarbonylamino)phenoxy)-1H-benzimidazol-2-yl)(2-(methoxy)ethoxy)acetamide]
IC50 (GST-VEGFR2): 100 to 1000 nM
IC50 (Recombinant GST-Tie2): 1000 to 10000 nM

COCCOCC(=O)Nc1nc2cc(Oc3ccc(NC(=O)Nc4nncs4)cc3)ccc2[nH]1 [Example 152, N-(5-(4-((1,3,4-Thiadiazol-2-yl)aminocarbonylamino)phenoxy)-1H-benzimidazol-2-yl)(2-(methoxy)ethoxy)acetamide]
IC50 (GST-VEGFR2): 1000 to 10000 nM
IC50 (Recombinant GST-Tie2): 1000 to 10000 nM

COCCOCC(=O)Nc1nc2cc(Oc3ccc(NC(=O)Nc4nc(C)cs4)cc3)ccc2[nH]1 [Example 153, N-(5-(4-((4-Methylthiazol-2-yl)aminocarbonylamino)phenoxy)-1H-benzimidazol-2-yl)(2-(methoxy)ethoxy)acetamide]
IC50 (GST-VEGFR2): 100 to 1000 nM
IC50 (Recombinant GST-Tie2): 1000 to 10000 nM

COCCOCC(=O)Nc1nc2cc(Oc3ccc(NC(=O)Nc4nnc(C)s4)cc3)ccc2[nH]1 [Example 155, N-(5-(4-((5-Methyl-1,3,4-thiadiazol-2-yl)aminocarbonylamino)phenoxy)-1H-benzimidazol-2-yl)(2-(methoxy)ethoxy)acetamide]
IC50 (GST-VEGFR2): 100 to 1000 nM
IC50 (Recombinant GST-Tie2): 1000 to 10000 nM

CCc1nnc(NC(=O)Nc2ccc(Oc3ccc4[nH]c(NC(=O)COCCOC)nc4c3)cc2)s1 [Example 156, N-(5-(4-((5-Ethyl-1,3,4-thiadiazol-2-yl)aminocarbonylamino)phenoxy)-1H-benzimidazol-2-yl)(2-(methoxy)ethoxy)acetamide]
IC50 (GST-VEGFR2): < 100 nM
IC50 (Recombinant GST-Tie2): 100 to 1000 nM

COCCOCC(=O)Nc1nc2cc(Oc3ccc(NC(=O)Nc4nc(C(C)(C)C)cs4)cc3)ccc2[nH]1 [Example 158, N-(5-(4-((4-tert-Butylthiazol-2-yl)aminocarbonylamino)phenoxy)-1H-benzimidazol-2-yl)(2-(methoxy)ethoxy)acetamide]
IC50 (GST-VEGFR2): < 100 nM
IC50 (Recombinant GST-Tie2): 100 to 1000 nM

COCCOCC(=O)Nc1nc2cc(Oc3ccc(NC(=O)Nc4nnc(C(C)(C)C)s4)cc3)ccc2[nH]1 [Example 159, N-(5-(4-((5-tert-Butyl-1,3,4-thiadiazol-2-yl)aminocarbonylamino)phenoxy)-1H-benzimidazol-2-yl)(2-(methoxy)ethoxy)acetamide]
IC50 (GST-VEGFR2): < 100 nM
IC50 (Recombinant GST-Tie2): < 100 nM

Reference: patent US7238813B2, “Chemical compounds” (Smithkline Beecham Corporation, priority 2000, dated 2007)
